Molecules are shown by their SMILES.

In one assay the target is K-Ras G13C (Homo sapiens (Human), UniProt P01116+P62937, G13C). The assay can be described thus: Ras-Raf (BRAF RBD) disruption / FRET / MOA assay, KRAS G13C. The class given is biochemical. Particulars: KRAS G13C; Ras-Raf disruption/FRET/MOA assay; read-out: IC50* KRAS G13C FRET data. The method in brief: (§1)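 TR-FRET read-out: a drop in ratio relative to DMSO wells marks disruption of the Ras:RAF complex, reported as IC50. Compounds (3-fold series, 10 points, top 30 μM final) incubated 3 h at 25° C before Eu-anti-His 10 nM and APC-anti-GST 50 nM, 1.5 h more.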

The target of the next assay is NRAS WT (Homo sapiens (Human), UniProt P01111+P62937). As to the kind of experiment: Ras-Raf (BRAF RBD) disruption / FRET / MOA assay, NRAS WT. The class given is biochemical. Particulars: read-out: IC50* NRAS WT FRET data. The method in brief: (§2)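 Compounds were tested as a 10-point 3-fold dilution series from 30 μM final for their ability to drive ternary complex formation between nucleotide-loaded Ras and cyclophilin A, displacing the BRAF RBD. After 3 h at 25° C., anti-His Eu-W1024 (10 nM) and anti-GST allophycocyanin (50 nM) were added for 1.5 h. A TR-FRET ratio decrease versus DMSO gave IC50.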

A further assay deals with KRAS Q61H (Homo sapiens (Human), UniProt P01116+P62937, Q61H). The assay can be described thus: Ras-Raf (BRAF RBD) disruption / FRET / MOA assay, KRAS Q61H. The class given is biochemical. The settings on record: Ras-Raf disruption/FRET/MOA assay; class symbols; read-out: KRAS Q61H FRET data IC50. In outline:
as §2

Another assay has as its target KRAS G13D (Homo sapiens (Human), UniProt P01116+P62937, G13D). The assay can be described thus: Ras-Raf (BRAF RBD) disruption / FRET / MOA assay, KRAS G13D. It is filed as biochemical. Particulars: read-out: IC50* KRAS G13D FRET data. The method in brief:
as §1

The target in another assay is KRAS G12V (Homo sapiens (Human), UniProt P01116+P62937, G12V). The assay can be described thus: Ras-Raf (BRAF RBD) disruption / FRET / MOA assay, KRAS G12V. It is filed as biochemical. The settings on record: read-out: IC50* KRAS G12V FRET data. In outline: as §1
Assay [1] has as its system NCI-H358 cells (K-Ras G12C). As to the kind of experiment: Potency assay: pERK in NCI-H358 cells. It is filed as cell-based, human. Particulars: Homo sapiens, NCI-H358; H358 KRAS G12C; read-out: pERK EC50. The method in brief:
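Inhibition of cellular pERK after a 4 h treatment, detected by AlphaLISA or In-Cell Western. IC50 from a four-parameter concentration-response fit.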

Another assay deals with KRAS WT (Homo sapiens (Human), UniProt P01116+P62937). The assay can be described thus: Ras-Raf (BRAF RBD) disruption / FRET / MOA assay, KRAS WT. It is filed as biochemical. The settings on record: read-out: IC50* KRAS WT FRET data. In outline:
as §1

K-Ras G13C, sequence (P01116-2 other isoform, or with tags, fused parts or gaps G13C): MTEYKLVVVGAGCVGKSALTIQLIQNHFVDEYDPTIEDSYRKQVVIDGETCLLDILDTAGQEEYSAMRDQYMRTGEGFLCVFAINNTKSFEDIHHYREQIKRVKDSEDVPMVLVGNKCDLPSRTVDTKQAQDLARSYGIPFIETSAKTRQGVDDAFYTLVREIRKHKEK
K-Ras G13C, sequence (P62937 whole entry): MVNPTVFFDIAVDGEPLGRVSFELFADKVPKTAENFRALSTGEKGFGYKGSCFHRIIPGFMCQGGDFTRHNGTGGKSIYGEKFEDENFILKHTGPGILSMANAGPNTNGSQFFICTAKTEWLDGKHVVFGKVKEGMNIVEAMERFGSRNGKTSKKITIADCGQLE
KRAS WT, sequence (P01116-2 other isoform, or with tags, fused parts or gaps): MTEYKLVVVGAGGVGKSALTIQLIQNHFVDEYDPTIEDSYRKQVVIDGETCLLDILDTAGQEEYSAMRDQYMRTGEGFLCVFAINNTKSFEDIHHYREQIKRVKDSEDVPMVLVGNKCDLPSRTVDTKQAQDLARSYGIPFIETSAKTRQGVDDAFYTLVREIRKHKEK
KRAS WT, sequence (P62937 whole entry): as the sequence (P62937 whole entry) above
KRAS G13D, sequence (P01116-2 other isoform, or with tags, fused parts or gaps G13D): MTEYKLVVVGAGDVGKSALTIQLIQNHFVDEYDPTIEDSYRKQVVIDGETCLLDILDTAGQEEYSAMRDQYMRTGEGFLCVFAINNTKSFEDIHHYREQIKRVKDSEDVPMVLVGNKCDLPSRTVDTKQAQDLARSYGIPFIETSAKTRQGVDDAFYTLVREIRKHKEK
KRAS G13D, sequence (P62937 whole entry): as the sequence (P62937 whole entry) above
NRAS WT, sequence (P01111 whole entry): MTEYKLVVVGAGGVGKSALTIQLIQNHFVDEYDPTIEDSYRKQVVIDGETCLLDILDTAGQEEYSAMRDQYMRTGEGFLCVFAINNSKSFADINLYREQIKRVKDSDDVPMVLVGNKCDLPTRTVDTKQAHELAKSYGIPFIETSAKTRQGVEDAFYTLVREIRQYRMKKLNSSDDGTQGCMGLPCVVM
NRAS WT, sequence (P62937 whole entry): as the sequence (P62937 whole entry) above
KRAS Q61H, sequence (P01116-2 other isoform, or with tags, fused parts or gaps Q61H): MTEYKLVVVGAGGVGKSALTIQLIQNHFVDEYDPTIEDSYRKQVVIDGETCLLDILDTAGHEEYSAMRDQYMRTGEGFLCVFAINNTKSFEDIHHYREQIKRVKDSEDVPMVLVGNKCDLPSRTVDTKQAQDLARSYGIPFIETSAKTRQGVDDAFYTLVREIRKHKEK
KRAS Q61H, sequence (P62937 whole entry): as the sequence (P62937 whole entry) above
KRAS G12V, sequence (P01116-2 other isoform, or with tags, fused parts or gaps G12V): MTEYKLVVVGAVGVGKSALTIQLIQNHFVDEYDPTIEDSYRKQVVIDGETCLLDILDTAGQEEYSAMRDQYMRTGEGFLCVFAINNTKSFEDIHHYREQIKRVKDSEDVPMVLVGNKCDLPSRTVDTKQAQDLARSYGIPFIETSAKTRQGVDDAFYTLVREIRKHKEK
KRAS G12V, sequence (P62937 whole entry): as the sequence (P62937 whole entry) above

Take `C=CC(=O)N1C[C@@H]2CN(C(=O)N(C)[C@H](C(=O)N[C@H]3Cc4nc(cs4)-c4ccc5c(c4)c(c(-c4cccnc4[C@H](C)OC)n5CC)CC(C)(C)COC(=O)[C@@H]4CCCN(N4)C3=O)C(C)C)C[C@@H]2C1` (atropisomer, axis not shown) [Example A389]: the IC50 at K-Ras G13C lay within 10 to 100 nM; at NRAS WT, 10 to 100 nM; at KRAS Q61H, 10 to 100 nM; on KRAS G13D it was 100 to 1000 nM; on KRAS G12V, 10 to 100 nM; at KRAS WT, 10 to 100 nM. Besides, in assay [1], the EC50 is under 5000 nM.

As for `C=CC(=O)N(C)[C@@H]1CCN(C(=O)N(C)[C@H](C(=O)N[C@H]2Cc3nc(cs3)-c3ccc4c(c3)c(c(-c3cccnc3[C@H](C)OC)n4CC)CC(C)(C)COC(=O)[C@@H]3CCCN(N3)C2=O)C(C)C)C1` (atropisomer, axis not shown) [Example A416], the IC50 on K-Ras G13C lay in the range of 100 to 1000 nM; on NRAS WT, 100 to 1000 nM; on KRAS Q61H it was 10 to 100 nM; at KRAS G13D, 100 to 1000 nM; at KRAS G12V, 100 to 1000 nM; on KRAS WT it was 100 to 1000 nM. Moreover, the EC50 in assay [1] was under 5000 nM.

As for `C=CC(=O)N1CC[C@H](C(=O)N(C)[C@H](C(=O)N[C@H]2Cc3coc(n3)-c3ccc4c(c3)c(c(-c3cccnc3[C@H](C)OC)n4CC)CC(C)(C)COC(=O)[C@@H]3CCCN(N3)C2=O)C(C)C)C1` (atropisomer, axis not shown) [Example A468], the IC50 on K-Ras G13C lay within 1000 to 10000 nM; at NRAS WT, 1000 to 10000 nM; at KRAS Q61H it was 100 to 1000 nM; on KRAS G13D, 1000 to 10000 nM; on KRAS G12V it was 1000 to 10000 nM; on KRAS WT it was 1000 to 10000 nM. Besides, in assay [1], the EC50 is under 5000 nM.

As to `C=CC(=O)N1CCN(C(=O)N(C)[C@H](C(=O)N[C@H]2Cc3nc(cs3)-c3ccc4c(c3)c(c(-c3cccnc3[C@H](C)OC)n4CC)CC(C)(C)COC(=O)[C@@H]3CCCN(N3)C2=O)C(C)C)CC1` (atropisomer, axis not shown) [Example A491], the IC50 is 10 to 100 nM at K-Ras G13C; 10 to 100 nM at NRAS WT; 10 to 100 nM on KRAS Q61H; 100 to 1000 nM on KRAS G13D; 10 to 100 nM at KRAS G12V; 10 to 100 nM at KRAS WT. The EC50 in assay [1] was under 5000 nM.

Consider `C=CC(=O)N1CC[C@H](C(=O)N(C)[C@H](C(=O)N[C@H]2Cc3nc(cs3)-c3ccc4c(c3)c(c(-c3cccnc3[C@H](C)OC)n4CC(F)(F)F)CC(C)(C)COC(=O)[C@@H]3CCCN(N3)C2=O)C(C)C)C1` (atropisomer, axis not shown) [Example A502], for which the concentration for half-maximal inhibition (IC50) on K-Ras G13C was 100 to 1000 nM; on NRAS WT it was 100 to 1000 nM; at KRAS Q61H, 100 to 1000 nM; at KRAS G13D it was 1000 to 10000 nM; at KRAS G12V, 1000 to 10000 nM; on KRAS WT, 1000 to 10000 nM. The EC50 in assay [1] is under 5000 nM.

On to `C=CC(=O)N1CC[C@H](C(=O)N(C)[C@H](C(=O)N[C@H]2Cc3cc(CF)cc(c3)-c3ccc4c(c3)c(c(-c3cccnc3[C@H](C)OC)n4CC)CC(C)(C)COC(=O)[C@@H]3CCCN(N3)C2=O)C(C)C)C1` (atropisomer, axis not shown) [Example A503], for which the IC50 was in the range of 100 to 1000 nM at K-Ras G13C; 1000 to 10000 nM on NRAS WT; 100 to 1000 nM on KRAS Q61H; 1000 to 10000 nM at KRAS G13D; 1000 to 10000 nM on KRAS G12V; 1000 to 10000 nM on KRAS WT. Moreover, in assay [1], the EC50 is under 5000 nM.

Take `C=CC(=O)N1CC[C@H](C(=O)N(C)[C@H](C(=O)N[C@H]2Cc3cccc(c3)-c3ccc4c(c3)c(c(-c3cc(CN(C)C)cnc3[C@H](C)OC)n4CC)CC(C)(C)COC(=O)[C@@H]3CCCN(N3)C2=O)C(C)C)C1` (atropisomer, axis not shown) [Example A522]: the IC50 at K-Ras G13C lay within 1000 to 10000 nM; at NRAS WT, 1000 to 10000 nM; on KRAS Q61H it was 100 to 1000 nM; at KRAS G13D, 1000 to 10000 nM; at KRAS G12V it was 1000 to 10000 nM; at KRAS WT it was 1000 to 10000 nM. Besides, in assay [1], the EC50 was under 5000 nM.

The values above are taken from US11566007B2, “Ras inhibitors” (Revolution Medicines, Inc., priority 2019, dated 2023).
